Laboratory results taken from patent US12331038B2, “Hexone glucokinase inhibitor and use thereof” (SHANDONG XUANZHU PHARMA CO., LTD., priority 2019, dated 2025).

How the values were obtained:
KHK-C [1] = target: T1, KHK-C (Homo sapiens (Human), UniProt P50053); experiment: Inhibitory activity against KHK-C kinase in vitro (ADP-Glo), Experimental Protocol II; assay type: biochemical; conditions: 1 nM KHK-C, 100 μM ATP, 200 μM D-Fructose, control drug top concentration 1000 nM
Protocol: Experimental Protocol II: 1. Compound Dilution • 1) The compounds of the present invention and the control drug were formulated in DMSO to 10 mM as stock solutions for test. • 2) The stock solutions of the compounds of the present invention were diluted by 10-fold to 1 mM, and then further diluted in a 3-fold gradient to 11 concentrations, with the highest concentration being 1 mM. The stock solution of the control drug was diluted by 100-fold to 0.1 mM, and then further diluted in a 3-fold gradient to 11 concentrations, with the highest concentration being 0.1 mM. • 3) 0.1 μL of the compounds of the present invention and the control drug as diluted was transferred with Echo550 to a 384-well plate, in duplicate per concentration, and then centrifuged at 1000 rpm for 1 min. 2. Enzyme Reaction Test • 1) 5 μL of KHK-C kinase working solution was added to the 384-well plate, centrifuged at 1000 rpm for 1 min, and then incubated at room temperature of 25° C. for 15 min. • 2) 5 μL of the substrate working solution was added to the 384-well plate to initiate the kinase reaction, centrifuged at 1000 rpm for 1 min, and incubated at room temperature of 25° C. for 60 min. • 3) The final concentrations of the KHK-C kinase reaction system were 1 nM for KHK-C, 100 μM for ATP, 200 μM for D-Fructose, 50 mM for HEPES, 10 mM for MgCl2, and 0.01% for Brij35, and the final concentration of DMSO was 1%. • 4) The final concentrations of the test compounds were 10000 nM, 3333.33 nM, 1111.11 nM, 370.37 nM, 123.457 nM, 41.15 nM, 13.71 nM, 4.572 nM, 1.524 nM, 0.508 nM, and 0.169 nM, respectively. • 5) The final concentrations of the control drug were 1000 nM, 333.33 nM, 111.11 nM, 37.037 nM, 12.346 nM, 4.115 nM, 1.371 nM, 0.4572 nM, 0.1524 nM, 0.0508 nM, and 0.0169 nM, respectively. 3. Reaction Termination and Detection • 1) The 384-well plate was added with 10 μL of the ADP Glo reagent, centrifuged at 1000 rpm for 1 min, and then incubated at room temperature of 25° C. for 40 min. • 2) The 384-well plate was added with 20 μL of the kinase detection reagent, centrifuged at 1000 rpm for 1 min, and then incubated at room temperature of 25° C. for 40 min. • 3) After the reaction was completed, the […] value LUM was read on Envision. 4. Data Analysis The following equation was used to calculate the inhibition (% inh): […]

HepG2 cells = experiment: Inhibition of production of fructose-1-phosphate induced by D-Fructose in HepG2 cells (LC-MS); assay type: cell-based; conditions: 30 min compound pre-incubation, D-Fructose 3 hours
Protocol: Experimental Protocol: 1. Cell Culture and Inoculation • 1) HepG2 cells in the logarithmic growth phase were collected and counted with a […]. The Trypan blue exclusion method was used to detect cell viability and ensure that cell viability is 90% or above. • 2) The concentration of HepG2 cells was adjusted, and 81 μL of the cell suspension in a FBS-free basal medium (starvation treatment) was add to a 96-well plate, with a cell inoculum amount of 5×10^4 cells per test well. • 3) The HepG2 cells in the 96-well plate were cultured overnight at 37° C., 5% CO2, and 95% humidity. 2. Administration • 1) Before administration, 9 μL of FBS was added to the test wells of the 96-well plate to stop the starvation treatment. • 2) 10× stock solutions of the individual test compounds were prepared by dilution in a 3-fold gradient to 8 concentrations, with the highest concentration of 100 μM. 10 μL of the test compound solutions was added to each well of the 96-well plate inoculated with the cells, in triplicate per test compound concentration. For the solvent control, 10 μL of 1% DMSO solution was added to each well, in triplicate. • 3) The cells in the 96-well plate added with the test compounds were incubated at 37° C., 5% CO2, and 95% humidity for 30 min. • 4) An 11-fold D-Fructose solution was prepared at the concentration of 220 mM. 10 μL of the D-Fructose solution was added to the 96-well plate inoculated with HepG2 cells per well, in triplicate. For the solvent control, 10 μL of 11% DPBS solution was added, in triplicate. • 5) The cells in the 96-well plate added with D-fructose were incubated at 37° C., 5% CO2, and 95% humidity for 3 hours. 3. Sample Treatment The medium in the 96-well plate was removed, and the cells in the 96-well plate were washed with cold DPBS (200 μl/well) for 3 times. 30 μL of cold 10 mM ammonium acetate (pH 7.4) was added into each well to lyse the cells (hypotonic lysis). After lysis on ice for 5 minutes, the cells were fully pipetted and the cell lysate was taken for LC-MS analysis. 4. Data Analysis The data were analyzed with GraphPad Prism 5.0 software, and fitted with nonlinear S-curve regression, so as to obtain a dose-effect curve to calculate the EC50 value. 5.

KHK-C [2] = target: T1, KHK-C; experiment: Inhibitory activity against KHK-C kinase in vitro (ADP-Glo), Experimental Protocol I; assay type: biochemical; conditions: 1 nM KHK-C, 100 μM ATP, 200 μM D-Fructose, control drug top concentration 10000 nM
Protocol: 2. […] 3. Reaction Termination and Detection • 1) The 384-well plate was added with 10 μL of the ADP Glo reagent, centrifuged at 1000 rpm for 1 min, and then incubated at room temperature of 25° C. for 40 min. • 2) The 384-well plate was added with 20 μL of the kinase detection reagent, centrifuged at 1000 rpm for 1 min, and then incubated at room temperature of 25° C. for 40 min. • 3) After the reaction was completed, the […] value LUM was read on Envision. 4. Data Analysis The following equation was used to calculate the inhibition (% inh): […]

T1 sequence (P50053 whole entry): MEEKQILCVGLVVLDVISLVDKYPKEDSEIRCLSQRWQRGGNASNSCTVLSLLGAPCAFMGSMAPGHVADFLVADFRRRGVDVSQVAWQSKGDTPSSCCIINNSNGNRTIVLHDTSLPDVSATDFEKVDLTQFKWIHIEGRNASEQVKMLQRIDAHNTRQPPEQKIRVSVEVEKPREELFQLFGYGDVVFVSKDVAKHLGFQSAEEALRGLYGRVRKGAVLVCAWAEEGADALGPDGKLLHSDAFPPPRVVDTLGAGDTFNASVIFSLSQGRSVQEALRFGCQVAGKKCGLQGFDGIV

IC50 (KHK-C [1])	EC50 (HepG2 cells; Homo sapiens)	IC50 (KHK-C [2])	EC50 (HepG2 cells)	SMILES
1.5 nM	18.2 nM	–	–	C[C@H]1N(c2nc(N3C[C@@H]4[C@@H](CC(=O)O)[C@@H]4C3)c3c(n2)C(F)(F)CCC3)CC1(F)F (single isomer, unassigned) [Compound 4-2]
–	21.9 nM	–	–	C[C@H]1CCN1c1nc(N2C[C@@H]3[C@@H](CC(=O)O)[C@@H]3C2)c2c(n1)C(F)(F)CC2 [Compound 1, 2-((1R,5S,6R)-3-(7,7-difluoro-2-((S)-2-methylazetidin-1-yl)-6,7-dihydro-5H-cyclopenta[d]pyrimidin-4-yl)-3-azabicyclo[3.1.0]hexan-6-yl)acetic acid]
–	14.5 nM	0.52 nM	–	C[C@H]1CCN1c1nc(N2C[C@@H]3[C@@H](CC(=O)O)[C@@H]3C2)c2c(n1)C(F)(F)CCC2 [Compound 2, 2-((1R,5S,6R)-3-(8,8-difluoro-2-((S)-2-methylazetidin-1-yl)-5,6,7,8-tetrahydroquinazolin-4-yl)-3-azabicyclo[3.1.0]hexan-6-yl)acetic acid]
0.73 nM	7.3 nM	–	–	CC1C(F)CN1c1nc(N2C[C@@H]3[C@@H](CC(=O)O)[C@@H]3C2)c2c(n1)C(F)(F)CCC2 (stereo partly drawn) [Compound 3-1, 2-((1R,5S,6s)-3-(8,8-difluoro-2-(3-fluoro-2-methylazetidin-1-yl)-5,6,7,8-tetrahydroquinazolin-4-yl)-3-azabicyclo[3.1.0]hexan-6-yl)acetic acid]
2.2 nM	11.8 nM	–	–	CC1N(c2nc(N3C[C@@H]4[C@@H](CC(=O)O)[C@@H]4C3)c3c(n2)C(F)(F)CCC3)CC1(F)F (stereo partly drawn) [Compound 4-1, 2-((1R,5S,6s)-3-(2-(3,3-difluoro-2-methylazetidin-1-yl)-8,8-difluoro-5,6,7,8-tetrahydroquinazolin-4-yl)-3-azabicyclo[3.1.0]hexan-6-yl)acetic acid]
0.9 nM	39 nM	–	–	CC1C(F)CN1c1nc(N2C[C@@H]3[C@@H](CC(=O)O)[C@@H]3C2)c2c(n1)C(F)(F)CC2 (stereo partly drawn) [Compound 6-1, 2-((1R,5S,6s)-3-(7,7-difluoro-2-(3-fluoro-2-methylazetidin-1-yl)-6,7-dihydro-5H-cyclopenta[d]pyrimidin-4-yl)-3-azabicyclo[3.1.0]hexan-6-yl)acetic acid]
–	–	–	169 nM	C[C@H]1CCN1c1nc(N2C[C@@H]3C(CC(=O)O)[C@@H]3C2)cc(C(F)(F)F)n1 (stereo partly drawn) [PF-06835919, reference compound]
